Where two headings read alike, the source gives them in different places.
Legend:
KB-8-5 (MDR1+) = assay: Cell survival assay (SRB), KB-8-5 (MDR1+); details: for IC50: Homo sapiens, MDR1, read-out: In vitro IC50 (nM) KB85
KB-3-1 = assay: Cell survival assay (SRB), KB-3-1; format: cell-based, human; details: Homo sapiens
Outline: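 Cells were exposed to serially diluted compound in duplicate for 3 days. Survival was read as protein content by SRB (TCA fixation 1 hr at 4 °C, 0.04% SRB stain, dissolved in 10 mM Tris, absorbance). KB-3-1 was grown in 20% FCS. IC50 is the concentration giving 50% growth inhibition.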

[1] = test system: Human Melanoma Carcinoma Lox; details: staged LOX xenograft; at MTD ('<': MTD not achieved); days 11-15
Method: 2.4. Growth of Tumors in Nude Mice. […] In these experiments, xenografts are implanted subcutaneously into the flanks of nude mice. […] Relative tumor mass compared to controls are assessed during the 21-day post-staging period.
Groups of 5 female nu/nu mice are injected with 1.5×10^6 KB-3-1 (A) or Lox cells (B). […] Relative tumor growth is determined during the experiment and % T/C calculated. Statistical analyses are Student's t-test of treated time points vs. vehicle (*, P<0.05; **, P<0.01)

KB-V1 (MDR1++) = assay: Cell survival assay (SRB), KB-V1 (MDR1++); details: for IC50: Homo sapiens, read-out: In vitro IC50 (nM) KBV1
tumor cell lines = assay: cells; format: cell-based; details: Five micromolar
Text: Cells lines with previously known mechanisms of resistance. […] Res. 8: 207-218,1996); KB-3-1 (parental derived from an epidermoid carcinoma), KB-8.5, KB-V1 (Akiyama S-I, Fojo A, Hanover J A, Pastan I, Gottesman M M. Isolation and genetic characterization of human KB cell lines resistant to multiple drugs. Somatic Cell Mol. Gen., 11: 117-126,1985; Shen D-W, Cardarelli C, Hwang J, Cornwell M, Richert N, Ishii S, Pastan I, Gottesman MM. […] J. Biol. Chem., 261: 7762-7770, 1986); and HL-60 (parental derived from human leukemia) and HL60/AR (McGrath T., Center M. S. Adriamycin resistance in HL60 cells in the absence of detectable P-glycoprotein. Biochem. Res. Commun., 145:1171-1176,1987); A549 and A549.EpoB40 (He L., Yang C.-P.H., Horwitz S. B. Mutations in p-tubulin map to domains involved in regulation of microtubule stability in epothilone-resistant cell lines. Molecular Cancer Therapeutics. 1: 3-10, 2001). HCT-15 human colon carcinoma and DLD-1 human colon carcinoma are obtained from American Tissue Culture Collection. The MX-1W carcinoma is a Wyeth variant orginally obtained as MX-1 breast carcinoma from the National Cancer Institute. Cell lines selected for resistance to Representative Example 129. KB-3-1 cells are selected for resistance to Example 129 by chronically exposing cells to increasing concentrations of Example 129.
2.2. Cell Survival Assay: Standard Pharmacological Test Procedure. The concentration of candidate inhibitor required to inhibit 50% of cell growth (IC50) is done according to previously reported methods. […] Compounds are serially diluted into media as 2× stocks and 100 μl added to cells in duplicate. Compounds are incubated with cells for 3 days. At the end of the incubation period the sulforhodamine B (SRB) assay, which measures protein content as an assessment of cell survival, is performed as described previously (Skehan P, Storeng R, Scudiero D, Monks A, McMahon J, Vistica D, Warren J T, Bokesch H, Kenney S, Boyd MR. New calorimetric cytotoxicity assay for anticancer-drug screening. J Natl Cancer Inst 1990 Jul 4;82(13):1107-12) with some modification as follows. For KB-3-1 cells with 20% FCS, media is gently decanted and replaced with 200 μl of serum-free media mixed with cold 50% TCA for a final concentration of 10% TCA. The plates are incubated for 1 hr at 4° C., followed by washing 5 times in cold distilled water, then air dried overnight. The fixed cells are stained for 10 min with 80 μl of 0.04% SRB solution prepared in 1% glacial acetic acid. Stain is discarded and plates washed 5 times in 1% glacial acetic acid, then air-dried until completely dry. Stained cell product is dissolved in 150 μl of 10 mM Trizma Base and placed on a shaker for 20 minutes until fully dissolved. Absorbance is read on a Victor V multi-label plate reader (Perkin Elmer, Gaithersburg, Md.).

[2] = KB 3-1, 72 h, amount of drug needed to kill 50% of cells after three days continuous exposure, Table 11, read-out: IC50 in parental cell line KB-3-1
[3] = KB 3-1, KB-3-1 cells (paclitaxel-sensitive parent), read-out: In vitro IC50 (nM) KB-3-1

SMILES | Ratio KB85/KB (KB-8-5 (MDR1+)) | IC50 (KB-8-5 (MDR1+)) | IC50 (KB-3-1; [2]) | IC50 (KB-3-1; [3]) | Activity in nude mice animal model (% T/C @ MTD on days 11-15) LOX [1] | Ratio KBV1/KB (KB-V1 (MDR1++)) | IC50 (KB-V1 (MDR1++)) | effect on cell growth when given alone (tumor cell lines; KB-3-1, KB-85, KB-V1 (Table 4)) | effect on cell growth when given alone (tumor cell lines; MX-1W, DLD-1, HCT-15 (Table 2))
CN[C@H](C(=O)N[C@H](C(=O)N(C)[C@H](C[C@@H](C)C(=O)O)C(C)C)C(C)(C)C)C(C)(C)c1ccccc1 [Example 124, N,β,β-trimethyl-L-phenylalanyl-N^1-[(1R,3R)-3-carboxy-1-isopropylbutyl]-N^1,3-dimethyl-L-valinamide] | 2.2 | 18.9 nM | 8.6 nM | 8.6 nM | 62% | 153.0 | 1320 nM |  | 
COc1ccc(C(C#N)(CCCCCN2CCc3cc(OC)c(OC)cc3C2)Sc2ccc(C)cc2)cc1OC (centres unmarked) |  |  |  |  |  |  |  | # has no inhibitory effect on cell growth when given alone. Data are the mean of two experiments. | # Five micromolar 7-(6,7-dimethoxy-3,4-dihydro-1H-isoquinolin-2-yl)-2(3,4-dimethoxy-phenyl)-2-p-tolysulfanyl-heptanenitrile has no inhibitory effect on cell growth when given alone.
CN[C@H](C(=O)N[C@H](C(=O)N(C)[C@H](/C=C(\C)C(=O)O)C(C)C)C(C)C)C(C)(C)c1ccccc1.O=C(O)C(F)(F)F [Example 105, N,β,β-trimethyl-L-phenylalanyl-N^1-[(1S,2E)-3-carboxy-1-isopropyl-2-butenyl]-N^1-methyl-L-valinamide Trifluoroacetic Acid] | 2.1 | 11.1 nM | 5.2 nM | 5.25 nM | 8% | 54.9 | 288 nM |  | 
CN[C@H](C(=O)N[C@H](C(=O)N(C)[C@H](/C=C(\C)C(=O)O)C(C)C)C(C)(C)C)C(C)(C)c1cccc(Cl)c1 [Example 2, 3-Chloro-N,β,β-trimethyl-L-phenylalanyl-N^1-[(1S,2E)-3-carboxy-1-isopropyl-2-butenyl]-N^1,3-dimethyl-L-valinamide] | 2.8 | 3.2 nM | 1.1 nM | 1.14 nM | 9% | 80.0 | 91 nM |  | 
CN[C@H](C(=O)N[C@H](C(=O)N(C)[C@H](/C=C(\C)C(=O)O)C(C)C)C(C)(C)C)C(C)(C)c1cccs1 [Example 20, N-Methyl-3-(2-thienyl)-L-valyl-N^1-[(1S,2E)-3-carboxy-1-isopropyl-2-butenyl]-N^1,3-dimethyl-L-valinamide] | 2.0 | 3.9 nM | 2 nM | 2 nM | 3% | 80.9 | 162 nM |  | 
CCOC(=O)/C(C)=C/[C@H](C(C)C)N(C)C(=O)[C@@H](NC(=O)[C@@H](NC)C(C)(C)c1ccccc1)C(C)(C)C [Example 133, Ethyl (E,4S)4-[((2S)-3,3-dimethyl-2-{[(2S)-3-methyl-2-(methylamino)-3-phenylbutanoyl]amino}butanoyl)(methyl)amino]-2,5-dimethyl-2-hexenoate] | 14.5 | 499 nM | 34 nM | 34 nM | 1% | 54.5 | 1870 nM |  | 
CN[C@H](C(=O)N[C@H](C(=O)N(C)[C@H](/C=C(\C)C(=O)O)C(C)C)C(C)(C)SC)C(C)(C)c1ccccc1 [Example 80, (E,4S)-2,5-dimethyl-4-{methyl[(2R)-3-methyl-2-{[(2S)-3-methyl-2-(methylamino)-3-phenylbutanoyl]amino}-3-(methylsulfanyl)butanoyl]amino}-2-hexenoic Acid] | 2.6 | 7.1 nM | 2.7 nM | 2.7 nM | 8^4% | 112.2 | 303 nM |  | 
CN[C@H](C(=O)N[C@H](C(=O)N(C)[C@H](/C=C(\C)C(=O)O)C(C)C)C(C)(C)C)C(C)(C)C1CCCCC1 [Example 70, 3-Cyclohexyl-N-methyl-L-valyl-N-1-[(1S,2E)-3-carboxy-1-isopropyl-2-butenyl]-N-1,3-dimethyl-L-valinamide] | 1.5 | 5.6 nM | 3.7 nM | 3.7 nM | 4% | 40.9 | 151 nM |  | 
CN[C@H](C(=O)N[C@H](C(=O)N(C)[C@H](/C=C(\C)C(=O)O)C(C)C)C(C)(C)C)C(C)(C)c1ccc(OC)cc1 [Example 57, N,O,β,β-tetramethyl-L-tyrosyl-N^1-[(1S,2E)-3-carboxy-1-isopropyl-2-butenyl]-N^1,3-dimethyl-L-valinamide] | 2.9 | 4.1 nM | 1.4 nM | 1.4 nM | <1^4% | 102.0 | 142 nM |  | 
CC[C@H](C)[C@H](NC(=O)[C@@H](NC)C(C)(C)c1ccccc1)C(=O)N(C)[C@H](/C=C(\C)C(=O)O)C(C)C.O=C(O)C(F)(F)F [Example 106, N,β,β-trimethyl-L-phenylalanyl-N^1-[(1S,2E)-3-carboxy-1-isopropyl-2-butenyl]-N^1-methyl-L-isoleucinamide Trifluoroacetic Acid] | 2.2 | 34 nM | 15.6 nM | 16 nM | <47^4% | 42.3 | 660 nM |  | 
CN[C@H](C(=O)N[C@H](C(=O)N(C)[C@H](/C=C(\C)C(=O)O)C(C)C)C(C)(C)C)C(C)(C)c1ccc(C)c(C)c1 [Example 14, N,β,β,3,4-Pentamethyl-L-phenylalanyl-N^1-[(1S,2E)-3-carboxy-1-isopropyl-2-butenyl]-N^1,3-dimethyl-L-valinamide] | 2.8 | 1.13 nM | 0.4 nM | 0.408 nM | 2% | 95.6 | 39 nM |  | 
CN[C@H](C(=O)N[C@H](C(=O)N(C)[C@H](/C=C(\C)C(=O)O)C(C)C)C(C)(C)C)C(C)(C)c1cccc(C(F)(F)F)c1 [Example 62, N,β,β-Trimethyl-3-(trifluoromethyl)-L-phenylalanyl-N^1-[(1S,2E)-3-carboxy-1-isopropyl-2-butenyl]-N^1,3-dimethyl-L-valinamide] | 2.6 | 1.7 nM | 0.7 nM | 0.647 nM | 2% | 66.0 | 42.7 nM |  | 
C/C(=C\[C@H](C(C)C)N(C)C(=O)[C@@H](NC(=O)[C@@H](N(C)C)C(C)(C)c1ccccc1)C(C)(C)C)C(=O)O [Example 52, N,N,β, β-Tetramethyl-L-phenylalanyl-N^1-[(1S,2E)-3-carboxy-1-isopropyl-2-butenyl]-N^1,3-dimethyl-L-valinamide] | 2.4 | 3.7 nM | 1.6 nM | 1.55 nM | 1% | 74.6 | 116 nM |  | 
